Like-named read-outs stand apart in the source and are kept apart here.
Assays:
MRSA = assay: microbe, parasite or virus in culture; conditions: Staphylococcus aureus
[1] = test system: Enterococcus faecalis ATCC 51575; assay: microbe, parasite or virus in culture; conditions: ATCC51575
[2] = test system: Enterococcus faecalis ATCC 29212; assay: microbe, parasite or virus in culture; conditions: ATCC29212
[3] = test system: Staphylococcus aureus ATCC 29213; assay: microbe, parasite or virus in culture; conditions: ATCC29213
[4] = test system: Streptococcus pneumoniae ATCC 51938; assay: microbe, parasite or virus in culture; conditions: ATCC51938
[5] = test system: Escherichia coli (E. Coli, ATCC 25922); assay: microbe, parasite or virus in culture; conditions: ATCC25922, 24 h
[6] = test system: Escherichia coli (ATCC 25922); assay: microbe, parasite or virus in culture; conditions: ATCC25922, read-out: E. coli (ATCC 25922) MIC
KPC = assay: microbe, parasite or virus in culture; conditions: Klebsiella pneumoniae, ATCCBAA1705, read-out: MIC Klebsiella pneumoniae (ATCC BAA-1705)
[7] = test system: Enterococcus faecium ATCC 700221; assay: microbe, parasite or virus in culture; conditions: ATCC700221
[8] = test system: Bacillus subtilis (ATCC-6633); assay: microbe, parasite or virus in culture; conditions: ATCC6633
[9] = test system: Enterococcus faecium ATCC 27270; assay: microbe, parasite or virus in culture; conditions: ATCC27270
E. coli = assay: microbe, parasite or virus in culture; conditions: Escherichia coli, ATCC25922, read-out: MIC Escherichia coli (ATCC 25922)
[10] = test system: Escherichia coli (E. Coli, ATCC 25922); conditions: Escherichia coli (ATCC 25922); antibiotic alone
[11] = test system: Pseudomonas aeruginosa (PSA, ATCC 27883); assay: Synergy checkerboard assay (FIC index); type: cell-based; conditions: Pseudomonas aeruginosa (ATCC 27883), antibiotic alone
[12] = test system: Pseudomonas aeruginosa (ATCC 27883); assay: microbe, parasite or virus in culture; conditions: ATCC27883, read-out: PSA (ATCC 27883 MIC)
[13] = test system: Streptococcus pneumoniae ATCC 49619; assay: microbe, parasite or virus in culture; conditions: ATCC49619
[14] = test system: Methicillin-resistant Staphylococcus aureus MRSA (ATCC BAA-1556); assay: microbe, parasite or virus in culture; conditions: ATCCBAA1556|MRSA, 24 h
PSA = assay: microbe, parasite or virus in culture; conditions: Pseudomonas aeruginosa, ATCC27883, read-out: MIC Pseudomonas aeruginosa (ATCC 27883)
[15] = test system: Pseudomonas aeruginosa (PSA, ATCC 27883); assay: microbe, parasite or virus in culture; conditions: ATCC27883, 24 h
[16] = test system: Bacillus cereus (ATCC-13061); assay: microbe, parasite or virus in culture; conditions: ATCC13061

C[C@@H](O)[C@H]1C(=O)N2C(C(=O)O)=C(S[C@@H]3CN[C@H](C(=O)N(C)C)C3)[C@H](C)[C@H]12 [Meropenem]
1 µg/mL: MIC ([5]; read-out: Escherichia coli (ATCC 25922) MIC, Table 29, [R6W4] (IFX-318), antibiotics alone and PHY-MIX (1:1 w/w)) | MIC ([5]; read-out: Escherichia coli (ATCC 25922) MIC, Table 30, [R5W4K] (IFX-315), antibiotics alone and PHY-MIX (1:1 w/w)) | MIC ([5]; read-out: Escherichia coli (ATCC 25922) MIC, Table 31, [R5W4] (IFX-301), antibiotics alone and PHY-MIX (1:1 w/w)) | MIC ([5]; read-out: Escherichia coli (ATCC 25922) MIC, Table 32, meropenem, IFX-315, their conjugate and Phy-Mix 1:1) | MIC [6] | MIC of antibiotic [10] | MIC of antibiotic [11] | MIC of antibiotic ([11]; Table 26) | antibiotic MIC ([11]; Table 27) | MIC [12] | MIC ([15]; read-out: Pseudomonas aeruginosa (ATCC 27883) MIC, Table 28, IFX-031, antibiotics alone and PHY-MIX (1:1 w/w)) | MIC ([15]; read-out: Pseudomonas aeruginosa (ATCC 27883) MIC, Table 29, [R6W4] (IFX-318), antibiotics alone and PHY-MIX (1:1 w/w)) | MIC ([15]; read-out: Pseudomonas aeruginosa (ATCC 27883) MIC, Table 30, [R5W4K] (IFX-315), antibiotics alone and PHY-MIX (1:1 w/w)) | MIC ([15]; read-out: Pseudomonas aeruginosa (ATCC 27883) MIC, Table 31, [R5W4] (IFX-301), antibiotics alone and PHY-MIX (1:1 w/w)) | MIC ([15]; read-out: Pseudomonas aeruginosa (ATCC 27883) MIC, Table 32, meropenem, IFX-315, their conjugate and Phy-Mix 1:1)
64 µg/mL: MIC [7]
8 µg/mL: MIC [1] | MIC (KPC)
0.5 µg/mL: MIC [9] | MIC (PSA)
2 µg/mL: MIC (MRSA; MRSA) | MIC [2] | MIC ([14]; read-out: MRSA (ATCC BAA-1556) MIC, Table 29, [R6W4] (IFX-318), antibiotics alone and PHY-MIX (1:1 w/w)) | MIC ([14]; read-out: MRSA (ATCC BAA-1556) MIC, Table 30, [R5W4K] (IFX-315), antibiotics alone and PHY-MIX (1:1 w/w)) | MIC ([14]; read-out: MRSA (ATCC BAA-1556) MIC, Table 31, [R5W4] (IFX-301), antibiotics alone and PHY-MIX (1:1 w/w)) | MIC ([14]; read-out: MRSA (ATCC BAA-1556) MIC, Table 32, meropenem, IFX-315, their conjugate and Phy-Mix 1:1)
4 µg/mL: MIC (MRSA; ATCCBAA1556 / MRSA, read-out: MIC MRSA (ATCC BAA-1556)) | MIC [16]
0.125 µg/mL: MIC (E. coli)
0.25 µg/mL: MIC [3] | MIC [4] | MIC [8] | MIC [13]

Source: patent US20220289794A1, “SYNTHETIC ANTIMICROBIAL PEPTIDES” (priority 2019, published 2022)
